Results: US9994594B2, “Inhibitors of arginase and their therapeutic applications” (MARS, INCORPORATED, priority 2010, dated 2018)
Counter-ions that a name gives are not always drawn. Like-named read-outs stand apart in the source and are kept apart here.

Columns and labels:
[1] = target: T1, human arginase I (ARG I) (Homo sapiens, UniProt P05089); experiment: Inhibition of arginase I, spectrophotometric urea assay at 530 nm; format: biochemical; conditions: read-out: Potency (ARG I)
T1 sequence (P05089 1-322): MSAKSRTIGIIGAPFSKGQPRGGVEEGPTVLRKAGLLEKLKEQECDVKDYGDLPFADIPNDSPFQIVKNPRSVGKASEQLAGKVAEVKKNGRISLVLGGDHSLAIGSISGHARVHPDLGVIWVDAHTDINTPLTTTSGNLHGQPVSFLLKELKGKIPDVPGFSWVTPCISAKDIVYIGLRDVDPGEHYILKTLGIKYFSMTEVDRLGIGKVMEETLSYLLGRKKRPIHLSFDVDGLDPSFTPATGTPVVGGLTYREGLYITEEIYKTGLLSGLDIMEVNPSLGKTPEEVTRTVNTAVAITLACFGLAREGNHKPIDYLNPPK
Experimental: (§1) The assay established the concentration of inhibitor that is required to reduce arginase activity by 50% (IC50).
(§2) Inhibition of arginase I (ARG I) and arginase II (ARG II) by Formula I and Formula II compounds is followed spectrophotometrically at 530 nm. The compound to be tested is dissolved in DMSO at an initial concentration 50-fold greater than its final concentration in the cuvette. 10 μl of the stock solution is diluted in 90 μl of the assay buffer that comprises 0.1M sodium phosphate buffer containing 130 mM NaCl, pH 7.4, to which is added ovalbumin (OVA) at a concentration of 1 mg/ml. Solutions of arginase I and II are prepared in 100 mM sodium phosphate buffer, pH 7.4 containing 1 mg/ml of OVA to give an arginase stock solution at a final concentration of 100 ng/ml.
(§3) To each well of a 96-well microtiter plate is add 40 μl of enzyme, 10 μl of an inventive compound and 10 μl of enzyme substrate (L-arginine+manganese sulfate). For wells that are used as positive controls, only the enzyme and its substrate are added, while wells used as negative controls contain only manganese sulfate.
(§4) After incubating the microtiter plate at 37° C. for 60 minutes, 150 μl of a urea reagent obtained by combining equal proportions (1:1) of reagents A and B is added to each well of the microtiter plate to stop the reaction. The urea reagent is made just before use by combining Reagent A (10 mM o-phthaldialdehyde, and 0.4% polyoxyethylene (23) lauryl ether (w/v) in 1.8 M sulfuric acid) with Reagent B (1.3 mM primaquine diphosphate, 0.4% polyoxyethylene (23) lauryl ether (w/v), 130 mM boric acid in 3.6 M sulfuric acid). After quenching the reaction mixture, the microtiter plate is allowed to stand for an additional 10 minutes at room temperature to allow color development. The inhibition of arginase is computed by measuring the optical density (OD) of the reaction mixture at 530 nm and normalizing the OD value to percent inhibition observed in the control. The normalized OD is then used to generate a dose-response curve by plotting the normalized OD values against log [concentration] and using regression analysis to compute the IC50 values.

[2] = target: T2, arginase II (ARG II) (Homo sapiens, UniProt P78540); experiment: Inhibition of arginase II, spectrophotometric urea assay at 530 nm; format: biochemical
T2 sequence (P78540 23-354): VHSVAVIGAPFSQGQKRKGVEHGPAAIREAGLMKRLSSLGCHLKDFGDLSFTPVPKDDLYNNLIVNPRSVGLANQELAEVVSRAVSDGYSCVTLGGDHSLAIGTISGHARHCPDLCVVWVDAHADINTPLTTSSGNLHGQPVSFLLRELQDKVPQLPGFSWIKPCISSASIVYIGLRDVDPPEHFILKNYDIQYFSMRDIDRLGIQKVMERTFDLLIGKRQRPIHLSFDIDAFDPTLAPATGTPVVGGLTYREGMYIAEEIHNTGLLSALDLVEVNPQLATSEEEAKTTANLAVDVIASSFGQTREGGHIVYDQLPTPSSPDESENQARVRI
Experimental: as §1, §2, §3, §4

[3] = Formula I compounds, Table 2, read-out: Potency (ARG II)
[4] = Formula II compounds, Table 2-A
[5] = Formula II compounds, Table 2-A, read-out: Potency (ARG)

SMILES	IC50 ([1]; Formula I compounds, Table 2)	IC50 [2, 3]	IC50 [1, 4]	IC50 [2, 5]
NC(CCCCB(O)O)(C(=O)O)C1CCN(C(=S)Nc2ccc(Cl)cc2)CC1 (stereo not drawn) [34-A, 2-amino-6-borono-2-(1-{[(4-chlorophenyl)amino]carbonothioyl}piperidin-4-yl)hexanoic acid hydrochloride]	–	–	251 to 1000 nM	251 to 1000 nM
NC(CCCCB(O)O)(C(=O)O)C1CCN(C(=S)Nc2ccc(Cl)cc2)C1 [35-A, 2-amino-6-borono-2-((S)-1-(4-chlorophenylcarbamothioyl)-pyrrolidin-3-yl)hexanoic acid hydrochloride]	–	–	251 to 1000 nM	251 to 1000 nM
NC(CCCCB(O)O)(C(=O)O)C1CNCCO1 (stereo not drawn) [19-A, 2-amino-6-borono-2-(morpholin-2-yl)hexanoic acid dihydrochloride]	–	–	2000 to 5000 nM	2000 to 5000 nM
COC[C@@H]1CCCN1CCC(N)(CCCCB(O)O)C(=O)O (stereo partly drawn) [compound 33, 2-amino-6-borono-2-(2-((S)-2-(methoxymethyl)pyrrolidin-1-yl)ethyl)hexanoic acid dihydrochloride]	251 to 1000 nM	251 to 1000 nM	–	–
NC(CCCCB(O)O)(CCN1CCC(C(=O)O)CC1)C(=O)O (stereo not drawn) [compound 21, 1-(3-amino-7-borono-3-carboxyheptyl)piperidine-4-carboxylic acid]	1000 to 2000 nM	1000 to 2000 nM	–	–
NC(CCCCB(O)O)(C(=O)O)C(O)C1CCCNC1 (stereo not drawn) [compound 110, 2-amino-6-borono-2-(hydroxy(piperidin-3-yl)methyl)hexanoic acid dihydrochloride]	1000 to 2000 nM	2000 to 5000 nM	–	–
COC1CCN(CCC(N)(CCCCB(O)O)C(=O)O)CC1 (stereo not drawn) [compound 41, 2-amino-6-borono-2-(2-(4-methoxypiperidin-1-yl)ethyl)hexanoic acid dihydrochloride]	1000 to 2000 nM	2000 to 5000 nM	–	–
NC(CCCCB(O)O)(C(=O)O)C1CCN(CCCc2ccc(C(F)(F)F)cc2)CC1 (stereo not drawn) [Example 63-A, 2-amino-6-borono-2-(1-(3-(4-(trifluoromethyl)phenyl)propyl)piperidin-4-yl)hexanoic acid acid dihydrochloride]	–	–	0.1 to 250 nM	0.1 to 250 nM
NC(CCCCB(O)O)(C(=O)O)C1CCN(Cc2ccc(F)cc2)CC1 (stereo not drawn) [Example 94-A, 2-amino-6-borono-2-(1-(4-fluorobenzyl)piperidin-4-yl)hexanoic acid dihydrochloride]	–	–	0.1 to 250 nM	251 to 1000 nM
NC(CCCCB(O)O)(C(=O)O)C1CCN(Cc2ccccc2-c2ccccc2)CC1 (stereo not drawn) [Example 55-A, 2-amino-2-(1-(biphenyl-2-ylmethyl)piperidin-4-yl)-6-boronohexanoic acid dihydrochloride]	–	–	0.1 to 250 nM	0.1 to 250 nM
CCCN1CCC(C(N)(CCCCB(O)O)C(=O)O)CC1 (stereo not drawn) [Example 101-A, 2-amino-6-borono-2-(1-propylpiperidin-4-yl)hexanoic acid dihydrochloride]	–	–	251 to 1000 nM	0.1 to 250 nM
NC(CCCCB(O)O)(C(=O)O)C1CCN(C(=O)Nc2ccc(Cl)cc2)CC1 (stereo not drawn) [32-A, 2-amino-6-borono-2-{1-[(4-chlorophenyl)-carbamoyl]piperidin-4-yl}hexanoic acid hydrochloride]	–	–	251 to 1000 nM	251 to 1000 nM
NC(CCCCB(O)O)(C(=O)O)C1CCN(Cc2csc3ccccc23)CC1 (stereo not drawn) [Example 104-A, 2-amino-2-(1-(benzo[b]thiophen-3-ylmethyl)piperidin-4-yl)-6-boronohexanoic acid dihydrochloride]	–	–	0.1 to 250 nM	0.1 to 250 nM
CC(=O)N1CCC(C(N)(CCCCB(O)O)C(=O)O)CC1 (stereo not drawn) [27-A, 2-amino-6-borono-2-[1-acetylpiperidin-4-yl]hexanoic acid hydrochloride]	–	–	2000 to 5000 nM	2000 to 5000 nM
CNC(CCCCB(O)O)(CCCN1CCCCC1)C(=O)O (stereo not drawn) [compound 148, 6-borono-2-(methylamino)-2-(3-(piperidin-1-yl)propyl)hexanoic acid dihydrochloride]	0.1 to 250 nM	0.1 to 250 nM	–	–
NC(CCCCB(O)O)(C(=O)O)C1CCN(Cc2cccc3ccccc23)CC1 (stereo not drawn) [Example 98-A, 2-amino-6-borono-2-(1-(naphthalen-1-ylmethyl)piperidin-4-yl)hexanoic acid dihydrochloride]	–	–	0.1 to 250 nM	0.1 to 250 nM
NC(CCCCB(O)O)(CN1CCCCC1)C(=O)O (stereo not drawn) [compound 79, 2-amino-6-borono-2-(piperidin-1-ylmethyl)hexanoic acid]	2000 to 5000 nM	> 5000 nM	–	–

Other lines, results leading:

IC50 ([1]; Formula I compounds, Table 2)	IC50 [2, 3]	IC50 [1, 4]	IC50 [2, 5]	SMILES
2000 to 5000 nM	2000 to 5000 nM	–	–	C[C@H](NCC(N)(CCCCB(O)O)C(=O)O)c1ccccc1 (stereo partly drawn) [compound 90, 2-amino-6-borono-2-(((S)-1-phenylethylamino)methyl)hexanoic acid dihydrochloride]
2000 to 5000 nM	2000 to 5000 nM	–	–	NC(CCCCB(O)O)(CCN1CCN(c2ncccn2)CC1)C(=O)O (stereo not drawn) [compound 17, 2-Amino-6-borono-2-[2-(4-pyrimidin-2-yl-piperazin-1-yl)ethyl]-hexanoic acid trihydrochloride]
0.1 to 250 nM	0.1 to 250 nM	–	–	NC(CCCCB(O)O)(CCNCCCc1ccc(F)c(F)c1)C(=O)O (stereo not drawn) [compound 63, 2-amino-6-borono-2-(2-(3-(3,4-difluorophenyl)propylamino)ethyl)hexanoic acid dihydrochloride]
251 to 1000 nM	251 to 1000 nM	–	–	NC(CCCCB(O)O)(CCNC1CCCC1)C(=O)O (stereo not drawn) [compound 72, 2-amino-6-borono-2-(2-(cyclopentylamino)ethyl)hexanoic acid dihydrochloride]
> 5000 nM	> 5000 nM	–	–	COc1ccccc1N1CCN(CCC(N)(CCCCB(O)O)C(=O)O)CC1 (stereo not drawn) [compound 50, 2-amino-6-borono-2-(2-(4-(2-methoxyphenyl)piperazin-1-yl)ethyl)hexanoic acid dihydrochloride]
2000 to 5000 nM	2000 to 5000 nM	–	–	NC(CCCCB(O)O)(C(=O)O)C(O)c1cccnc1 (stereo not drawn) [compound 112, 2-amino-6-borono-2-(hydroxy(pyridin-3-yl)methyl)hexanoic acid dihydrochloride]
2000 to 5000 nM	> 5000 nM	–	–	NC(CCCCB(O)O)(CC1CNC1)C(=O)O (stereo not drawn) [compound 123, 2-amino-2-(azetidin-3-ylmethyl)-6-boronohexanoic acid dihydrochloride]
2000 to 5000 nM	2000 to 5000 nM	–	–	CC[C@](N)(CCCCB(O)O)C(=O)O [compound 15, (S)-2-amino-6-borono-2-ethylhexanoic acid hydrochloride]
2000 to 5000 nM	2000 to 5000 nM	–	–	CN(CCC(N)(CCCCB(O)O)C(=O)O)CC(O)c1ccccc1 (stereo not drawn) [compound 78, 2-amino-6-borono-2-(2-((2-hydroxy-2-phenylethyl)(methyl)amino)ethyl)hexanoic acid dihydrochloride]
2000 to 5000 nM	2000 to 5000 nM	–	–	NC(CCCCB(O)O)(CCN1CCC(=O)CC1)C(=O)O (stereo not drawn) [compound 38, 2-amino-6-borono-2-(2-(4-oxopiperidin-1-yl)ethyl)hexanoic acid dihydrochloride]
–	–	0.1 to 250 nM	0.1 to 250 nM	NC(CCCCB(O)O)(C(=O)O)C1CCN(CCCc2ccccc2)CC1 (stereo not drawn) [Example 102-A, 2-amino-6-borono-2-(1-(3-phenylpropyl)piperidin-4-yl)hexanoic acid dihydrochloride]
2000 to 5000 nM	2000 to 5000 nM	–	–	C[C@H](CO)NCCC(N)(CCCCB(O)O)C(=O)O (stereo partly drawn) [compound 91]
2000 to 5000 nM	2000 to 5000 nM	–	–	NC(CCCCB(O)O)(CCc1ccccn1)C(=O)O (stereo not drawn) [compound 116, 2-amino-6-borono-2-(2-(pyridin-2-yl)ethyl)hexanoic acid dihydrochloride]
